Source: patent US20240216476A1, “COMBINATION OF BITTER RECEPTOR AGONIST AND GUT-SIGNALING COMPOUND” (AARDVARK THERAPEUTICS, INC., priority 2021, published 2024)
Read-outs that look alike come from different tables or passages of the source. Marks after values point to notes of the source that are not given here.

Assays:
[1] = system: high-fat diet-induced obese (DIO) mice; type: in vivo; details: in words; for high-density lipoprotein (HDL) levels: vs vehicle controls
Procedure: This Example provides the results from an in vivo study of denatonium acetate and sitagliptin in high-fat diet-induced obese (DIO) mice. C57BL/6NTac mice (at least 12 weeks of age) were fed with a high fat diet. All mice were dosed orally by gavage as (a) Vehicle group (N=15) dosed with distilled water BID, (b) DA group (N=15) dosed at 75 mg/kg (denatonium weight) BID; (c) sitagliptin group (N=15) dosed by gavage with 10 mg/kg QD; and (d) DA+ sitagliptin group (N=15) treated with DA at 75 mg/kg (denatonium based weight) BID and sitagliptin at 10 mg/kg by gavage QD. The groups were dosed for 8 weeks followed by a 5-7 day […] period. Body weight and body weight changes were measured three times per week. Serum biomarker levels for blood glucose (after fasting 6-8 hours), blood insulin, percentage of blood HvA1c, HDL, LDL, total triglycerides (TG), total cholesterol (TC) and bile acid were measured twice during the study at day 28 and at the end (day 56) of the study. Cumulative food intake and water consumption for each animal was measured.

[2] = cited from earlier work; for Effect on Body Weight (placebo-adjusted change from baseline) / Effect on HbA1c (placebo-adjusted change from baseline) / Effect on Body Weight (placebo-adjusted change from baseline), percent: QD 24-26 weeks
[3] = system: ob/ob mice; details: sitagliptin 0.0018% in diet 12 weeks; alogliptin 42.2 mg/kg/day 28 days; cited from earlier work
[4] = system: C57Bl/6J mice fed with high-fat diet; details: sitagliptin 0.004% in diet 12 weeks; vildagliptin 30 mg/kg/day 7 weeks; alogliptin 0.03% (wt/wt) in diet for life span; cited from earlier work
[5] = 18 weeks, on metformin; saxagliptin 5 mg daily; sitagliptin 100 mg; cited from earlier work
[6] = in words; cited from earlier work
[7] = semaglutide 3 mg, sitagliptin 100 mg, saxagliptin 2.5 mg, vildagliptin 50 mg, alogliptin 12.5 mg, linagliptin 5 mg
[8] = semaglutide 7 mg, sitagliptin 200 mg, saxagliptin 5 mg, vildagliptin 100 mg, alogliptin 25 mg
[9] = sitagliptin alone or in combination compared with controls, meta-analysis results

N[C@@H](CC(=O)N1CCn2c(nnc2C(F)(F)F)C1)Cc1cc(F)c(F)cc1F [Sitagliptin, (2R)-4-oxo-4-[3-(trifluoromethyl)-5,6-dihydro[1,2,4]triazolo[4,3-a]pyrazin-7(8H)-yl]-1-(2,4,5-trifluorophenyl)butan-2-amine]
high-density lipoprotein (HDL) levels ([1]; FIG. 22A): significantly decreased high-density lipoprotein (HDL) levels
high-density lipoprotein (HDL) levels ([1]; day 56 (FIG. 22B)): significantly decreased high-density lipoprotein (HDL) levels
weight loss ([1]; 56-day study summary): no weight loss effect was seen with longer duration dosing
effect on body weight (relative body weight percentage and relative body weight change) ([1]; DA 75 mg/kg BID, sitagliptin 10 mg/kg QD by gavage, 8 weeks): least effect on body weight
Effect on Body Weight (placebo-adjusted change from baseline) [2, 7]: 100 mg: +0.9 kg
Effect on HbA1c (placebo-adjusted change from baseline) [2, 7]: 100 mg: −0.79%
Effect on Body Weight (placebo-adjusted change from baseline), percent ([2]; semaglutide 3 mg, sitagliptin 100 mg, saxagliptin 2.5 mg, vildagliptin 50 mg): (+1.1%)
Effect on Body Weight (placebo-adjusted change from baseline) [2, 8]: 200 mg: +1.0 kg
Effect on HbA1c (placebo-adjusted change from baseline) [2, 8]: 200 mg: −0.94%
Effect on Body Weight (placebo-adjusted change from baseline), percent ([2]; semaglutide 7 mg, sitagliptin 200 mg, saxagliptin 5 mg, vildagliptin 100 mg): (+1.2%)
HDL-C, weighted mean difference (WMD) [2, 9]: 0.05 mmol/L) ^$$$
serum TG, weighted mean difference [WMD] [2, 9]: [WMD] −0.24 mmol/L
Control-adjusted Percent Change in Fasting Blood Glucose [3]: −23.4%*
Control-adjusted Percent Change in Insulin Level [3]: +148%*
Control-adjusted Percent Change in TG Level [3]: −43.2%*
Control-adjusted Percent Change in Body Weight Gain [4]: −45.8%*
Control-adjusted Percent Change in Fasting Blood Glucose [4]: −20.9%*
Control-adjusted Percent Change in Insulin Level [4]: −41.7%
reductions in hemoglobin A1c (HbA1c) [5]: −0.26%
excretion and metabolism [6]: renally excreted with minimal liver metabolism (via CYP3A4 and CYP2C8)
